Experimental data as given in PMC6770154, “A Multi-Biochemical and In Silico Study on Anti-Enzymatic Actions of Pyroglutamic Acid against PDE-5, ACE, and Urease Using Various Analytical Techniques: Unexplored Pharmacological Properties and Cytotoxicity Evaluation” (Biomolecules, 2019).

Key:
[1] = molecular target: Jack bean urease (JBU) (Canavalia ensiformis, UniProt P07374); experiment: ESI-MS monitoring of urea depletion; assay type: biochemical
[2] = molecular target: human angiotensin-converting enzyme (ACE) (Homo sapiens, UniProt P12821); experiment: spectrophotometric hippuric acid formation, % inhibition at […]; assay type: biochemical
human angiotensin-converting enzyme (ACE), sequence (P12821 30-1306): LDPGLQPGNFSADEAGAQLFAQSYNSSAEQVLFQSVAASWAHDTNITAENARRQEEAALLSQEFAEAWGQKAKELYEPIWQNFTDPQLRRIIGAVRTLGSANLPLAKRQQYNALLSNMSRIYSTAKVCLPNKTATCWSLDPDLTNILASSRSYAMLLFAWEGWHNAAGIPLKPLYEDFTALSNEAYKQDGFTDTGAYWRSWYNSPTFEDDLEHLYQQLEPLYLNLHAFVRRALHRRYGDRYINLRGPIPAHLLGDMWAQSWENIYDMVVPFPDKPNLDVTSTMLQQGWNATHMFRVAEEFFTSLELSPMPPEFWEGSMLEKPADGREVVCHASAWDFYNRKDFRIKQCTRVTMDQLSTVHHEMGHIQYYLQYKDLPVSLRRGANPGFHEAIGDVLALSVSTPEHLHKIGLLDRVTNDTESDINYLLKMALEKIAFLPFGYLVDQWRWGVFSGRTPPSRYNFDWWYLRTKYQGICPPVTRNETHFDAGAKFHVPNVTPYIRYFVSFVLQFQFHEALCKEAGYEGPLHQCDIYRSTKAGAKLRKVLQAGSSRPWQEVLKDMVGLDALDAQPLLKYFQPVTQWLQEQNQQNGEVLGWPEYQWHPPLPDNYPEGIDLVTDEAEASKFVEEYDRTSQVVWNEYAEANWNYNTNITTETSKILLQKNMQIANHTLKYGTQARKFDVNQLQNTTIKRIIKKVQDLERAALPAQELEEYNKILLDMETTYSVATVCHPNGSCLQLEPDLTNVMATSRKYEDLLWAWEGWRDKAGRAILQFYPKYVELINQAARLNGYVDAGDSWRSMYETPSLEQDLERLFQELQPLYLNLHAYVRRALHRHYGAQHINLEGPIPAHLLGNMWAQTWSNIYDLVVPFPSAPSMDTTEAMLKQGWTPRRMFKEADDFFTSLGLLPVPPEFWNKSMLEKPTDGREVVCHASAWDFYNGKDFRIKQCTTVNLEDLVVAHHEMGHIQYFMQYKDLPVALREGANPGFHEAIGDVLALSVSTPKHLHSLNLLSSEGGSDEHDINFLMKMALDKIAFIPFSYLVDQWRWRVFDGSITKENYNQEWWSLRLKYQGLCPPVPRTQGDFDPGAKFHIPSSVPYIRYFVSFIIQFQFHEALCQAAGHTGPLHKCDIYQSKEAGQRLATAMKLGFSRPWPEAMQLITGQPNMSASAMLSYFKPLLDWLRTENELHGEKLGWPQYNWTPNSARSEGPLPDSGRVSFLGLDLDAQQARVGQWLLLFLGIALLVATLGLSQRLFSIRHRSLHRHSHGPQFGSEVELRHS

[3] = molecular target: T1, phosphodiesterase-5A1 (PDE5A1) (Homo sapiens, UniProt O76074); experiment: biochemical
T1 construct: gene PDE5A

Jack bean urease (JBU), sequence (P07374 whole entry, looked up): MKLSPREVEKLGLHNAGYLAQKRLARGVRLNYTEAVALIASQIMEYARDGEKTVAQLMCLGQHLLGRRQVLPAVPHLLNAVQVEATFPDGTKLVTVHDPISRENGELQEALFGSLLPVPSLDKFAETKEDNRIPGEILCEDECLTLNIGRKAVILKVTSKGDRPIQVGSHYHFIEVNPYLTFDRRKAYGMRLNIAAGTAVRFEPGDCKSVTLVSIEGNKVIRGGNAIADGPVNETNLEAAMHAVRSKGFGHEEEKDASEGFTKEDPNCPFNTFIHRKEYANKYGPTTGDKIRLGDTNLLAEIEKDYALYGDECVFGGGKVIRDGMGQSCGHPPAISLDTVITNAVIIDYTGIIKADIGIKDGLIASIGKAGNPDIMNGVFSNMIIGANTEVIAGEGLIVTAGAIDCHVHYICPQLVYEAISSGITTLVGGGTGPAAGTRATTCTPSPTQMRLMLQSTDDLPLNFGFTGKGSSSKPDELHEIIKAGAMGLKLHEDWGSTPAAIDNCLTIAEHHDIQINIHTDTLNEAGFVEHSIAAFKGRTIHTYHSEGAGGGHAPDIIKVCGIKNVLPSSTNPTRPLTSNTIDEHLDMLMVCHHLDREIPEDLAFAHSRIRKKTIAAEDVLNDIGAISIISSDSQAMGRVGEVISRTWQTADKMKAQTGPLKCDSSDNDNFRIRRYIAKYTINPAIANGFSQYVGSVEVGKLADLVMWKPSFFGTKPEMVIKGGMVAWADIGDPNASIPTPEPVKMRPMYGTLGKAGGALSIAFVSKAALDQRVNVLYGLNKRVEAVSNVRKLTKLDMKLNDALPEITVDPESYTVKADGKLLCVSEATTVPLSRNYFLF

## CC(=O)NO [AHA, acetohydroxamic acid, reference compound]
[1]
  IC50: 3.9 µM

## O=C1CC[C@@H](C(=O)O)N1 [pGlu, pyroglutamic acid]
[2]
  inhibition at 20 µg/mL: 98.2 ± 1.12%
[1]
  IC50: 1.8 µM
[3]
  IC50: 5.23 ± 1.33 µM
